Assay [1] relates to Lassa GP-pseudotyped-virus. Put plainly: microbe, parasite or virus in culture. Format: cell-based, Lassa fever virus. The settings on record: for EC50: Human immunodeficiency virus 1, read-out: Activity (EC50 in μM vs. pseudotyped virus) Lassa.
Assay [2] deals with Machupo pseudotyped virus. Put plainly: organism not typed. Format: cell-based. The note with it: read-out: Activity (EC50 in μM vs. pseudotyped virus) Machupo.
For the next assay, the system named is Junín pseudotyped virus. Put plainly: organism not typed. Format: cell-based. The settings on record: read-out: Activity (EC50 in μM vs. pseudotyped virus) Junín.
The test system of the next assay is Sabiá pseudotyped virus. Put plainly: organism not typed. The note with it: read-out: Activity (EC50 in μM vs. pseudotyped virus) Sabiá. Format: cell-based.
Another assay concerns VSVg pseudotyped virus. Put plainly: organism not typed. Format: cell-based. The note with it: read-out: Activity (EC50 in μM vs. pseudotyped virus) VSVg.
Assay [3] deals with Guanarito pseudotyped virus. Put plainly: organism not typed. The settings on record: read-out: Activity (EC50 in μM vs. pseudotyped virus) Guanarito. Format: cell-based.

SMILES strings stand for the structures. Where a name gives a salt, the structure may show the parent alone.

By EC50 is commonly meant the concentration at which the effect is half-maximal. For the compound `CC(C)Oc1ccc(-n2cnc3cc(/C=C\c4ccc(C(=O)O)cc4)ccc32)cc1` [Compound 45, 4-[(Z)-2-[1-(4-isopropoxyphenyl)benzimidazol-5-yl]vinyl]benzoic acid], the EC50 in assay [1] was 10 to 50 µM; in assay [2], below 1 µM; in the assay with Junín pseudotyped virus, below 1 µM; in the assay on Sabiá pseudotyped virus, 1 to 10 µM; in the assay with VSVg pseudotyped virus, above 50 µM.
In the case of `CC(C)Oc1ccc(-n2cnc3cc(/C=C\c4ccc(C(C)(C)C)cc4)ccc32)cc1` [Compound 7, 5-[(Z)-2-(4-tert-butylphenyl)vinyl]-1-(4-isopropoxyphenyl)-benzimidazole], the EC50 was below 1 µM in assay [1]; below 1 µM in assay [2]; below 1 µM in the assay on Junín pseudotyped virus; below 1 µM in the assay with Sabiá pseudotyped virus; 10 to 50 µM with VSVg pseudotyped virus.
`CCOc1ccc(-n2cnc3cc(SCc4ccc(CC)cc4)ccc32)cc1` [Compound 33, 1-(4-ethoxyphenyl)-5-[(4-ethylphenyl)-methylsulfanyl]benzimidazole]: the EC50 is below 1 µM in assay [1]; below 1 µM in assay [2]; below 1 µM in assay [3]; below 1 µM in the assay with Junín pseudotyped virus; below 1 µM with Sabiá pseudotyped virus; 10 to 50 µM with VSVg pseudotyped virus.
Consider `CCOc1ccc(-n2cnc3cc(/C=C\c4ccc(CC)cc4)ccc32)cc1` [Compound 2, 1-(4-ethoxyphenyl)-5-[(Z)-2-(4-ethylphenyl)vinyl]benzimidazole], for which the “EC50 value against Lassa GP-pseudotyped-virus” value in assay [1] is “submicromolar”. For the same compound, the EC50 in assay [1] was below 1 µM; in assay [2] it was below 1 µM; in assay [3], below 1 µM; in the assay with Junín pseudotyped virus, below 1 µM; with Sabiá pseudotyped virus, below 1 µM; with VSVg pseudotyped virus it was 10 to 50 µM.
Take `CCOc1ccc(-n2cnc3cc(/C=C\c4ccc(C(C)(C)O)cc4)ccc32)cc1` [Compound 61, 2-[4-[(Z)-2-[1-(4-ethoxyphenyl)benzimidazol-5-yl]vinyl]phenyl]propan-2-ol]: the EC50 in assay [1] was below 1 µM; in assay [2], below 1 µM; in the assay with Junín pseudotyped virus, below 1 µM; in the assay with Sabiá pseudotyped virus, below 1 µM; with VSVg pseudotyped virus, 10 to 50 µM.
On to `COc1ccc(-n2cnc3cc(/C=C\c4ccc(C(C)C)cc4)cnc32)cc1` [Compound 24, 6-[(Z)-2-(4-isopropylphenyl)vinyl]-3-(4-methoxyphenyl)imidazo[4,5-b]pyridine], for which the EC50 in assay [1] is below 1 µM; in assay [2], below 1 µM; in the assay with Junín pseudotyped virus it was below 1 µM; in the assay on Sabiá pseudotyped virus, below 1 µM; in the assay on VSVg pseudotyped virus, 10 to 50 µM.
As for `CCOc1ccc(-n2cnc3cc(CCc4ccc(CC)cc4)ccc32)cc1` [Compound 27, 1-(4-ethoxyphenyl)-5-[2-(4-ethylphenyl)-ethyl]benzimidazole], the EC50 in assay [1] is below 1 µM; in assay [2] it was below 1 µM; in assay [3], below 1 µM; with Junín pseudotyped virus, below 1 µM; with Sabiá pseudotyped virus, below 1 µM; in the assay on VSVg pseudotyped virus it was above 50 µM.
As to `CCOc1ccc(-n2cnc3cc(/C=C\c4ccc(C(C)(C)C)cc4)ccc32)nc1` [Compound 21, 5-[(Z)-2-(4-tert-butylphenyl)vinyl]-1-(5-ethoxy-2-pyridyl)benzimidazole hydrochloride], the EC50 in assay [1] was below 1 µM; in assay [2], below 1 µM; in the assay on Junín pseudotyped virus it was below 1 µM; with Sabiá pseudotyped virus it was below 1 µM; in the assay with VSVg pseudotyped virus, 10 to 50 µM.
Take `CCOc1ccc(-n2cnc3cc(/C=C\c4ccc(CC)cc4)ccc32)nc1` [Compound 19, 1-(5-ethoxy-2-pyridyl)-5-[(Z)-2-(4-ethylphenyl)vinyl]benzimidazol hydrochloride]: the EC50 was below 1 µM in assay [1]; below 1 µM in assay [2]; below 1 µM in the assay with Junín pseudotyped virus; below 1 µM with Sabiá pseudotyped virus; 10 to 50 µM in the assay on VSVg pseudotyped virus.
Turning to `CCOc1ccc(-n2cnc3cc(OCc4ccc(CC)cc4)cnc32)cc1` [Compound 31, 3-(4-ethoxyphenyl)-6-[(4-ethylphenyl)-methoxy]imidazo[4,5-b]pyridine], the EC50 in assay [1] was below 1 µM; in assay [2], below 1 µM; in assay [3], below 1 µM; with Junín pseudotyped virus, below 1 µM; in the assay on Sabiá pseudotyped virus, below 1 µM; in the assay with VSVg pseudotyped virus, 10 to 50 µM.

The values are drawn from US10000486B2 (priority 2012, dated 2018).
